≈ marks a conversion by molar mass, not a printed value. Like-named read-outs stand apart in the source and are kept apart here.
What was measured:
[1] = system: Klebsiella pneumoniae 417; assay: In vitro antibacterial activity, two-fold agar-plate dilution method; format: cell-based
Experimental: (§1) In vitro antibacterial activity was determined by the two-fold agar-plate dilution method as described below.
(§2) One loopful of an overnight culture of each test strain in Trypticase-soy broth (10^8 viable cells per ml.) was streaked on heart infusion agar (HI-agar) containing-graded concentrations of antibiotics, and the minimal inhibitory concentration (MIC) was expressed in terms of μg/ml. after incubation at 37° C. for 20 hours.

[2] = system: Escherichia coli NIHJ JC-2; assay: as above; format: cell-based; conditions: NIHJJC2, HI-agar, 37° C., 20 hours
Experimental: as §1, §2

Proteus mirabilis 525 = assay: as above; format: cell-based; conditions: HI-agar, 37° C., 20 hours
Experimental: as §1, §2

Acute toxicity in mice = format: in vivo, ICR strain mice; conditions: 2 g intravenously; 10 mice; one week observation
Experimental: The same strain mice as aforesaid protecting test against experimental infections were used in groups of 10 mice. Test compound (8) (2 g) was administered intravenously to said mice.

Escherichia coli 29 [3] = assay: MIC of strain used in the mouse infection test; format: cell-based; conditions: Escherichia coli, 29, 20 h
Experimental: as §1
as §2, with “([…])” for “(10^8 viable cells per ml.)”

Escherichia coli 29 [4] = assay: Protecting effect against experimental infections in mice; format: in vivo, Male ICR strain mice; conditions: s.c. one hour after challenge, one week
Experimental: (§3) Male ICR strain mice aged 4 weeks, each weighing 20-23 g were used in groups of 8 mice. The test bacteria were cultured overnight at 37° C. on HI-agar and then suspended in 2.5-5% mucin solution to obtain the suspension corresponding to each challenge cells. Mice were inoculated intraperitoneally with 0.5 ml of the suspension. A solution containing each test compounds was given subcutaneously to the mice in various dosage one hour after challenge. The ED50 values were calculated from the number of surviving mice for each dosage after one week of observation.

Serratia marcesens 4 [5] = assay: MIC of strain used in the mouse infection test; format: cell-based; conditions: Serratia, 4, 20 h
Experimental: as §1
as §2, with “([…])” for “(10^8 viable cells per ml.)”

Serratia marcesens 4 [6] = assay: Protecting effect against experimental infections in mice; format: in vivo, Male ICR strain mice; conditions: challenge 1.0 × 10^6 cells/mouse i.p.; s.c. one hour after challenge; one week
Experimental: as §3

[7] = system: Proteus vulgaris IAM-1025; assay: In vitro antibacterial activity, two-fold agar-plate dilution method; format: cell-based; conditions: IAM1025, HI-agar, 37° C., 20 hours
Experimental: as §1, §2
as §2, with “containing graded concentration” for “containing-graded concentrations”, “test compounds,” for “antibiotics,”, “μg/ml” for “μg/ml.”

Proteus vulgaris 1 = assay: as above; format: cell-based; conditions: HI-agar, 37° C., 20 hours
Experimental: as §1, §2

[8] = system: Bacillus subtilis ATCC 6633; assay: as above; format: cell-based; conditions: ATCC6633, HI-agar, 37° C., 20 hours
Experimental: as §1, §2
as §2, with “containing graded” for “containing-graded”, “test compounds,” for “antibiotics,”

Escherichia coli 100 [9] = assay: MIC of strain used in the mouse infection test; format: cell-based
Experimental: as §1
as §2, with “([…])” for “(10^8 viable cells per ml.)”

Escherichia coli 100 [10] = assay: Protecting effect against experimental infections in mice; format: in vivo, Male ICR strain mice; conditions: challenge 3.5 × 10^4 cells/mouse i.p.; s.c. one hour after challenge; one week
Experimental: as §3

[11] = system: Pseudomonas aeruginosa NCTC-10490; assay: In vitro antibacterial activity, two-fold agar-plate dilution method; format: cell-based; conditions: NCTC10490, HI-agar, 37° C., 20 hours
Experimental: as §1
as §2, with “containing graded” for “containing-graded”, “test compounds,” for “antibiotics,”

[12] = Klebsiella pneumoniae 417, HI-agar, 37° C., 20 hours, read-out: MIC
[13] = challenge 6 × 10^6 cells/mouse i.p.

MIC [1, 12] [µg/mL]	MIC [2] [µg/mL]	MIC (Proteus mirabilis 525) [µg/mL]	SMILES	also measured
6.25 (≈ 12.4 µM)	50 (≈ 98.9 µM)	25 (≈ 49.5 µM)	CO/N=C(/C(=O)NC1C(=O)N2C(C(=O)O)=C(CSc3nnnn3C)CSC12)c1cccc(O)c1 (stereo not shown) [(3)]	
6.25 (≈ 12.2 µM)	12.5 (≈ 24.4 µM)	3.13 (≈ 6.12 µM)	CO/N=C(/C(=O)NC1C(=O)N2C(C(=O)O)=C(CSc3nnnn3C)CSC12)c1csc(N)n1 (stereo not shown) [(7)]	
1.56 (≈ 2.88 µM)	0.78 (≈ 1.44 µM)	0.39 (≈ 0.72 µM)	CO/N=C(\C(=O)NC1C(=O)N2C(C(=O)O)=C(CSc3nncs3)CSC12)c1csc(NC=O)n1 (stereo not shown) [(10)]	
3.13 (≈ 5.78 µM)	12.5 (≈ 23.1 µM)	3.13 (≈ 5.78 µM)	CO/N=C(/C(=O)NC1C(=O)N2C(C(=O)O)=C(CSc3nncs3)CSC12)c1csc(NC=O)n1 (stereo not shown) [(11)]	
1.56 (≈ 3.23 µM)	1.56 (≈ 3.23 µM)	0.78 (≈ 1.61 µM)	CO/N=C(\C(=O)NC1C(=O)N2C(C(=O)O)=C(COC(C)=O)CSC12)c1csc(NC=O)n1 (stereo not shown) [(12)]	MIC (Serratia marcesens 4 [5]; 10^6 viable cells/ml): 6.25 µg/mL; MIC (Serratia marcesens 4 [5]; 10^8 viable cells/ml): 200 µg/mL; ED50 (S.C.) (Serratia marcesens 4 [6]): 0.018 mg/mouse
0.5 (≈ 1.1 µM)	1.56 (≈ 3.42 µM)	0.025 (≈ 0.0548 µM)	CO/N=C(\C(=O)NC1C(=O)N2C(C(=O)O)=C(COC(N)=O)CSC12)c1csc(N)n1 (stereo not shown) [(13)]	MIC (Serratia marcesens 4 [5]; 10^6 viable cells/ml): ≤ 0.025 µg/mL; MIC (Serratia marcesens 4 [5]; 10^8 viable cells/ml): 25 µg/mL; ED50 (S.C.) (Serratia marcesens 4 [6]): < 0.156 mg/mouse
0.2 (≈ 0.389 µM)	0.1 (≈ 0.195 µM)	0.1 (≈ 0.195 µM)	CO/N=C(\C(=O)NC1C(=O)N2C(C(=O)O)=C(CSc3nncs3)CSC12)c1csc(N)n1 (stereo not shown) [(14)]	MIC (Escherichia coli 29 [3]; 10^6 viable cells/ml): ≤ 0.03 µg/mL; MIC (Escherichia coli 29 [3]; 10^8 viable cells/ml): ≤ 0.03 µg/mL; ED50 (S.C.) (Escherichia coli 29 [4]; [13]): < 0.005 mg/mouse
0.05 (≈ 0.121 µM)	0.78 (≈ 1.89 µM)	0.1 (≈ 0.242 µM)	CO/N=C(\C(=O)NC1C(=O)N2C(C(=O)O)=C(CO)CSC12)c1csc(N)n1 (stereo not shown) [(15)]	
0.1 (≈ 0.19 µM)	0.39 (≈ 0.739 µM)	0.39 (≈ 0.739 µM)	CO/N=C(\C(=O)NC1C(=O)N2C(C(=O)O)=C(CSc3nnc(C)s3)CSC12)c1csc(N)n1 (stereo not shown) [(16)]	
0.2 (≈ 0.392 µM)	0.2 (≈ 0.392 µM)	0.39 (≈ 0.764 µM)	CO/N=C(\C(=O)NC1C(=O)N2C(C(=O)O)=C(CSc3nncn3C)CSC12)c1csc(N)n1 (stereo not shown) [(17)]	
0.05 (≈ 0.0905 µM)	3.13 (≈ 5.67 µM)	0.025 (≈ 0.0453 µM)	CO/N=C(\C(=O)NC1C(=O)N2C(C(=O)O)=C(COC(N)=O)CSC12)c1csc(NC(=O)C(F)(F)F)n1 (stereo not shown) [(18)]	
			C#CCO/N=C(\C(=O)NC1C(=O)N2C(C(=O)O)=C(COC(C)=O)CSC12)c1csc(N)n1 (stereo not shown) [(19)]	MIC [7]: 0.78 µg/mL (≈ 1.63 µM); MIC (Proteus vulgaris 1): 0.78 µg/mL (≈ 1.63 µM); MIC [8]: 3.13 µg/mL (≈ 6.53 µM)
			CC(C)O/N=C(\C(=O)NC1C(=O)N2C(C(=O)O)=C(COC(N)=O)CSC12)c1csc(N)n1 (stereo not shown) [(20)]	MIC [7]: 0.2 µg/mL (≈ 0.413 µM); MIC (Proteus vulgaris 1): 0.2 µg/mL (≈ 0.413 µM); MIC [8]: 1.56 µg/mL (≈ 3.22 µM)
			C=CCn1nnnc1SCC1=C(C(=O)O)N2C(=O)C(NC(=O)/C(=N\OC(C)C)c3csc(N)n3)C2SC1 (stereo not shown) [(21)]	MIC [7]: 0.78 µg/mL (≈ 1.38 µM); MIC (Proteus vulgaris 1): 0.78 µg/mL (≈ 1.38 µM); MIC [8]: 0.78 µg/mL (≈ 1.38 µM)
			CC(=O)OCC1=C(C(=O)O)N2C(=O)C(NC(=O)Cc3cccs3)C2SC1 (stereo not shown) [CET, 7(2-Thienyl)acetamidocephalosporanic acid, reference compound]	MIC (Escherichia coli 29 [3]; 10^6 viable cells/ml): 3.13 µg/mL; MIC (Escherichia coli 29 [3]; 10^8 viable cells/ml): 12.5 µg/mL; ED50 (S.C.) (Escherichia coli 29 [4]; [13]): 1.402 mg/mouse
			Cc1nnc(SCC2=C(C(=O)O)N3C(=O)C(NC(=O)Cn4cnnn4)C3SC2)s1 (stereo not shown) [CEZ Na, reference compound]	MIC (Escherichia coli 29 [3]; 10^6 viable cells/ml): 0.78 µg/mL; MIC (Escherichia coli 29 [3]; 10^8 viable cells/ml): 3.13 µg/mL; ED50 (S.C.) (Escherichia coli 29 [4]; challenge 5.5 × 10^5 cells/mouse i.p.): 0.182 mg/mouse
			CO/N=C(\C(=O)N[C@@H]1C(=O)N2C(C(=O)O)=C(COC(N)=O)CS[C@H]12)c1ccco1 [Cefuroxime, reference compound]	MIC of used strain (Escherichia coli 100 [9]; 10^6 viable cells/ml): 12.5 µg/mL; MIC (Escherichia coli 100 [9]; 20 h, 10^8 viable cells/ml): 12.5 µg/mL; MIC (Serratia marcesens 4 [5]; 10^6 viable cells/ml): 50 µg/mL; MIC (Serratia marcesens 4 [5]; 10^8 viable cells/ml): 400 µg/mL; ED50 (S.C.) (Escherichia coli 100 [10]): 1.158 mg/mouse; ED50 (S.C.) (Serratia marcesens 4 [6]): 4.329 mg/mouse
			C=CCO/N=C(\C(=O)NC1C(=O)N2C(C(=O)O)=C(CSc3nnnn3CC=C)CSC12)c1csc(N)n1 (stereo not shown) [Test Compound (3), 7-[2-Allyloxyimino-2-(2-aminothiazol-4-yl)acetamido]-3-(1-allyl-1H-tetrazol-5-yl)thiomethyl-3-cephem-4-carboxylic acid]	MIC [8]: 0.78 µg/mL (≈ 1.38 µM); MIC [11]: 6.25 µg/mL (≈ 11.1 µM)
			CO/N=C(\C(=O)NC1C(=O)N2C(C(=O)O)=C(CSc3nc(C)ns3)CSC12)c1csc(N)n1 (stereo not shown) [Test Compound (3), 7-[2-Methoxyimino-2-(2-aminothiazol-4-yl)acetamido]-3-(3-methyl-1,2,4-thiadiazol-5-yl)thiomethyl-3-cephem-4-carboxylic acid]	MIC [8]: 1.56 µg/mL (≈ 2.96 µM)

SMILES	MIC [1, 12] [µg/mL]	MIC [2] [µg/mL]	MIC (Proteus mirabilis 525) [µg/mL]	also measured
CO/N=C(\C(=O)NC1C(=O)N2C(C(=O)O)=C(COC(C)=O)CSC12)c1csc(N)n1 (stereo not shown) [(8)]	0.1 (≈ 0.22 µM)	0.1 (≈ 0.22 µM)	0.05 (≈ 0.11 µM)	Acute toxicity (survival, disorder) (Acute toxicity in mice): All mice survived without showing any disorder; MIC (Escherichia coli 29 [3]; 10^6 viable cells/ml): ≤ 0.03 µg/mL; MIC (Escherichia coli 29 [3]; 10^8 viable cells/ml): 0.2 µg/mL; ED50 (S.C.) (Escherichia coli 29 [4]; [13]): < 0.005 mg/mouse
CO/N=C(/C(=O)NC1C(=O)N2C(C(=O)O)=C(COC(C)=O)CSC12)c1csc(N)n1 (stereo not shown) [(9)]		3.13 (≈ 6.87 µM)	0.78 (≈ 1.71 µM)	MIC ([1]; Klebsiella pneumoniae, 417, 20 h): 1.56 µg/mL (≈ 3.43 µM)

— patent publication US4493833A, “Syn-isomer of 3,7-disubstituted-3-cephem-4-carboxylic acid compounds” (Fujisawa Pharmaceutical Co., Ltd., priority 1976, dated 1985)
